Marks after values point to notes of the source that are not given here.
Test system: rumen fluid
Test: ANKOM artificial rumen system, dry matter digestibility of hay
Type: cell-based, steers
Settings: 24 hours
Method: This study was conducted to evaluate the feed additive composition in an ANKOM artificial rumen system to compare digestibility of a feed additive of a cobalt lactate/yeast blend, relative to a feed additive of only cobalt lactate and a feed additive of only yeast. In each run, two cannulated steers were used to collect rumen fluid from the two steers at the Ralco Beef Research Farm in Marshall, MN. The rumen fluid was mixed with a buffer solution along with a different feed additive composition in each of three jars and a fourth jar having a control with no treatment. Eight runs were performed at differing amounts of cobalt lactate, yeast, and blends of cobalt lactate and yeast, as shown in each of the tables below. The cobalt lactate used in Runs 1-8 was Microbial Catalyst® from Ralco. The yeast used in Runs 1-8 was Emprove MX from Emmert.
Dacron bags with hay (Barley straw, DM 94.2, CP 5.4, ADF 54.15, NDF 75.6, Neg/cwt 17.7 and Nem/cwt 42.5 respectively) samples were then added to each jar, the jar was purged with CO2 and incubated for 24 hours at 39.5 degrees C. At the end of the 24 hours, the bags were removed, washed with clear tap water and run through the ANKOM fiber analyzer. At that point, the bags were dried and re-weighed, and the weight entered into formulas to give a dry matter digestibility value.
In this study a similar analysis was performed as in Example 5. In this example, Formulation A (used in Runs 6-8) was compared to Product 1 (Diamond V XPC®) and Product 2 (Amaferm® from BioZyme). The protocol used in this example is the same as that provided above for Example 5.

## CC(O)C(=O)[O-].CC(O)C(=O)[O-].[Co+2] (centres unmarked) [cobalt lactate]
Run 1, 3.0 g
  DMD: 54.37^b
Run 2, 6.0 g
  DMD: 57.04^b
Run 3, 3.0 g
  DMD: 61.87^b
Run 4, 3.0 g
  DMD: 61.83^c
Run 5, 3.0 g
  DMD: 64.59^c
Run 6, 3.0 g
  DMD: 62.41^c
Run 7, 3.0 g
  DMD: 62.17^b
Run 8, 3.0 g
  DMD: 66.71^c

Reference: US12263198B1, “Compositions and methods of improving ruminant performance” (Ralco Nutrition, Inc., priority 2021, dated 2025)
